Converted amounts (≈) assume the structure as drawn. Read-outs that look alike come from different tables or passages of the source.
Columns and labels:
[1] = system: M. avium CNCTC My 330/88; test: MIC micromethod in Sula's medium, atypical strain M. avium; type: cell-based; details: Mycobacterium avium, read-out: Minimum inhibiting concentration
Procedure: The prepared compounds with general formula I were tested by the Institute of Public Health in Ostrava (Department of Bacteriology and Mycology, Laboratory for Diagnostics of Mycobacteria, Partyzanské náměsti 7, 702 00 Ostrava) under in vitro conditions in liquid Sula's medium and their minimum inhibiting concentrations (MIC) were determined as the biological effect of molecules cannot be predicted. The antimycobacterial activity of the prepared compounds was tested on the collection strain Mycobacterium tuberculosis CNCTC My 331/88, collection atypical strains M. avium CNCTC My 330/88 and M. kansasii CNCTC My 235/80. Their activity was compared with the effect of isoniazide (INH), a commonly used medicament.

[2] = system: M. kansasii CNCTC My 235/80; test: microbe, parasite or virus in culture; type: cell-based; details: Mycobacterium kansasii, read-out: Minimum inhibiting concentration
[3] = system: Mycobacterium tuberculosis CNCTC My 331/88; test: microbe, parasite or virus in culture; type: cell-based; details: read-out: Minimum inhibiting concentration
[4] = 336 h, M. avium My 330/88, after 14 days of incubation
[5] = 504 h, M. avium My 330/88, after 21 days of incubation

`O=[N+]([O-])c1cc(CSc2nc(-c3ccccc3)no2)cc([N+](=O)[O-])c1` [Compound 1, 5-((3,5-Dinitrobenzyl)sulfanyl)-3-phenyl-1,2,4-oxadiazole] showed a melting point of 135 to 136 °C, an MIC [1, 4] of 250 µM (≈ 89.6 µg/mL) and an MIC [1, 5] of 250 µM (≈ 89.6 µg/mL). It also gave an MIC ([2]; 168 h) of 0.5 µM (≈ 0.179 µg/mL), an MIC ([2]; 336 h) of 1 µM (≈ 0.358 µg/mL) and an MIC ([2]; 504 h) of 1 µM (≈ 0.358 µg/mL). The MIC ([3]; 336 h) was 0.5 µM (≈ 0.179 µg/mL) and the MIC ([3]; 504 h) was 1 µM (≈ 0.358 µg/mL).

With `Cc1ccc(-c2noc(SCc3cc([N+](=O)[O-])cc([N+](=O)[O-])c3)n2)cc1` [Compound 2, 5-((3,5-Dinitrobenzyl)sulfanyl)-3-(p-tolyl)-1,2,4-oxadiazole] the melting point was 150 to 152 °C, the MIC [1, 4] was 250 µM (≈ 93.1 µg/mL) and the MIC [1, 5] was 250 µM (≈ 93.1 µg/mL). The MIC ([2]; 168 h) was 0.5 µM (≈ 0.186 µg/mL), the MIC ([2]; 336 h) was 1 µM (≈ 0.372 µg/mL) and the MIC ([2]; 504 h) was 2 µM (≈ 0.745 µg/mL). For the same compound, the MIC ([3]; 336 h) was 0.5 µM (≈ 0.186 µg/mL) and the MIC ([3]; 504 h) was 1 µM (≈ 0.372 µg/mL).

`COc1ccc(-c2noc(SCc3cc([N+](=O)[O-])cc([N+](=O)[O-])c3)n2)cc1` [Compound 3] gave an MIC [1, 4] of 250 µM (≈ 97.1 µg/mL), an MIC [1, 5] of 250 µM (≈ 97.1 µg/mL) and an MIC ([2]; 168 h) of 0.5 µM (≈ 0.194 µg/mL). The MIC ([2]; 336 h) was 1 µM (≈ 0.388 µg/mL), the MIC ([2]; 504 h) was 2 µM (≈ 0.777 µg/mL) and the MIC ([3]; 336 h) was 0.5 µM (≈ 0.194 µg/mL). The MIC ([3]; 504 h) was 0.5 µM (≈ 0.194 µg/mL).

`O=[N+]([O-])c1cc(CSc2nc(-c3ccc(Cl)cc3)no2)cc([N+](=O)[O-])c1` [Compound 4] showed an MIC [1, 4] of 250 µM (≈ 98.2 µg/mL), an MIC [1, 5] of 250 µM (≈ 98.2 µg/mL) and an MIC ([2]; 168 h) of 1 µM (≈ 0.393 µg/mL). It also gave an MIC ([2]; 336 h) of 2 µM (≈ 0.786 µg/mL), an MIC ([2]; 504 h) of 4 µM (≈ 1.57 µg/mL) and an MIC ([3]; 336 h) of 0.5 µM (≈ 0.196 µg/mL). For the same compound, the MIC ([3]; 504 h) was 1 µM (≈ 0.393 µg/mL).

`O=[N+]([O-])c1cc(CSc2nc(-c3cccc(Cl)c3)no2)cc([N+](=O)[O-])c1` [Compound 5] gave a melting point of 133 to 135 °C, an MIC [1, 4] of 250 µM (≈ 98.2 µg/mL) and an MIC [1, 5] of 250 µM (≈ 98.2 µg/mL). The MIC ([2]; 168 h) was 2 µM (≈ 0.786 µg/mL), the MIC ([2]; 336 h) was 2 µM (≈ 0.786 µg/mL) and the MIC ([2]; 504 h) was 4 µM (≈ 1.57 µg/mL). The MIC ([3]; 336 h) was 0.5 µM (≈ 0.196 µg/mL) and the MIC ([3]; 504 h) was 1 µM (≈ 0.393 µg/mL).

For `O=[N+]([O-])c1cc(CSc2nc(-c3ccccc3Cl)no2)cc([N+](=O)[O-])c1` [Compound 6], the melting point was 158 to 160 °C, the MIC [1, 4] was 125 µM (≈ 49.1 µg/mL) and the MIC [1, 5] was 125 µM (≈ 49.1 µg/mL). It also gave an MIC ([2]; 168 h) of 8 µM (≈ 3.14 µg/mL), an MIC ([2]; 336 h) of 16 µM (≈ 6.28 µg/mL) and an MIC ([2]; 504 h) of 32 µM (≈ 12.6 µg/mL). It also gave an MIC ([3]; 336 h) of 0.5 µM (≈ 0.196 µg/mL) and an MIC ([3]; 504 h) of 1 µM (≈ 0.393 µg/mL).

Compound `O=[N+]([O-])c1cc(CSc2nc(-c3ccc(Cl)c(Cl)c3)no2)cc([N+](=O)[O-])c1` [Compound 7] has a melting point of 176 to 177 °C, an MIC [1, 4] of 250 µM (≈ 107 µg/mL) and an MIC [1, 5] of 250 µM (≈ 107 µg/mL). For the same compound, the MIC ([2]; 168 h) was 1 µM (≈ 0.427 µg/mL), the MIC ([2]; 336 h) was 1 µM (≈ 0.427 µg/mL) and the MIC ([2]; 504 h) was 2 µM (≈ 0.854 µg/mL). For the same compound, the MIC ([3]; 336 h) was 1 µM (≈ 0.427 µg/mL) and the MIC ([3]; 504 h) was 1 µM (≈ 0.427 µg/mL).

Compound `O=[N+]([O-])c1cc(CSc2nc(-c3ccc(F)cc3)no2)cc([N+](=O)[O-])c1` [Compound 8] has a melting point of 150 to 152 °C, an MIC [1, 4] of 250 µM (≈ 94.1 µg/mL) and an MIC [1, 5] of 250 µM (≈ 94.1 µg/mL). For the same compound, the MIC ([2]; 168 h) was 0.5 µM (≈ 0.188 µg/mL), the MIC ([2]; 336 h) was 1 µM (≈ 0.376 µg/mL) and the MIC ([2]; 504 h) was 2 µM (≈ 0.753 µg/mL). The MIC ([3]; 336 h) was 0.25 µM (≈ 0.0941 µg/mL) and the MIC ([3]; 504 h) was 0.5 µM (≈ 0.188 µg/mL).

Work on `O=[N+]([O-])c1cc(CSc2nc(-c3ccc(Br)cc3)no2)cc([N+](=O)[O-])c1` [Compound 9] yielded a melting point of 175 to 176 °C, an MIC [1, 4] of 125 µM (≈ 54.7 µg/mL) and an MIC [1, 5] of 125 µM (≈ 54.7 µg/mL). For the same compound, the MIC ([2]; 168 h) was 1 µM (≈ 0.437 µg/mL), the MIC ([2]; 336 h) was 1 µM (≈ 0.437 µg/mL) and the MIC ([2]; 504 h) was 2 µM (≈ 0.874 µg/mL). The MIC ([3]; 336 h) was 1 µM (≈ 0.437 µg/mL) and the MIC ([3]; 504 h) was 1 µM (≈ 0.437 µg/mL).

`O=[N+]([O-])c1cc(CCc2nc(-c3ccccc3)no2)cc([N+](=O)[O-])c1` [Compound 11, 5-(3,5-Dinitrophenethyl)-3-phenyl-1,2,4-oxadiazole] gave a melting point of 120 to 122 °C, an MIC [1, 4] of 250 µM (≈ 85.1 µg/mL) and an MIC [1, 5] of 250 µM (≈ 85.1 µg/mL). For the same compound, the MIC ([2]; 168 h) was 2 µM (≈ 0.681 µg/mL), the MIC ([2]; 336 h) was 4 µM (≈ 1.36 µg/mL) and the MIC ([2]; 504 h) was 8 µM (≈ 2.72 µg/mL). The MIC ([3]; 336 h) was 4 µM (≈ 1.36 µg/mL) and the MIC ([3]; 504 h) was 4 µM (≈ 1.36 µg/mL).

Compound `Cc1ccc(-c2noc(CCc3cc([N+](=O)[O-])cc([N+](=O)[O-])c3)n2)cc1` [Compound 12, 5-(3,5-Dinitrophenethyl)-3-(p-tolyl)-1,2,4-oxadiazole] has a melting point of 147 to 148 °C, an MIC [1, 4] of 250 µM (≈ 88.6 µg/mL) and an MIC [1, 5] of 250 µM (≈ 88.6 µg/mL). The MIC ([2]; 168 h) was 2 µM (≈ 0.709 µg/mL), the MIC ([2]; 336 h) was 4 µM (≈ 1.42 µg/mL) and the MIC ([2]; 504 h) was 4 µM (≈ 1.42 µg/mL). For the same compound, the MIC ([3]; 336 h) was 2 µM (≈ 0.709 µg/mL) and the MIC ([3]; 504 h) was 4 µM (≈ 1.42 µg/mL).

Compound `COc1ccc(-c2noc(CCc3cc([N+](=O)[O-])cc([N+](=O)[O-])c3)n2)cc1` [Compound 13] has a melting point of 128 to 129 °C, an MIC [1, 4] of 250 µM (≈ 92.6 µg/mL) and an MIC [1, 5] of 250 µM (≈ 92.6 µg/mL). For the same compound, the MIC ([2]; 168 h) was 0.5 µM (≈ 0.185 µg/mL), the MIC ([2]; 336 h) was 1 µM (≈ 0.37 µg/mL) and the MIC ([2]; 504 h) was 2 µM (≈ 0.741 µg/mL). It also gave an MIC ([3]; 336 h) of 0.5 µM (≈ 0.185 µg/mL) and an MIC ([3]; 504 h) of 1 µM (≈ 0.37 µg/mL).

For `O=[N+]([O-])c1cc(CCc2nc(-c3ccc(Cl)cc3)no2)cc([N+](=O)[O-])c1` [Compound 14], the melting point was 182 to 183 °C, the MIC [1, 4] was 250 µM (≈ 93.7 µg/mL) and the MIC [1, 5] was 250 µM (≈ 93.7 µg/mL). The MIC ([2]; 168 h) was > 32 µM, the MIC ([2]; 336 h) was > 32 µM and the MIC ([2]; 504 h) was > 32 µM. The MIC ([3]; 336 h) was > 32 µM and the MIC ([3]; 504 h) was > 32 µM.

Work on `O=[N+]([O-])c1cc(CCc2nc(-c3ccc(Cl)c(Cl)c3)no2)cc([N+](=O)[O-])c1` [Compound 15] yielded a melting point of 154 to 155 °C, an MIC [1, 4] of 250 µM (≈ 102 µg/mL) and an MIC [1, 5] of 250 µM (≈ 102 µg/mL). For the same compound, the MIC ([2]; 168 h) was 32 µM (≈ 13.1 µg/mL), the MIC ([2]; 336 h) was > 32 µM and the MIC ([2]; 504 h) was > 32 µM. The MIC ([3]; 336 h) was > 32 µM and the MIC ([3]; 504 h) was > 32 µM.

`O=[N+]([O-])c1cc(CCc2nc(-c3ccc(F)cc3)no2)cc([N+](=O)[O-])c1` [Compound 16] gave a melting point of 169 to 171 °C, an MIC [1, 4] of 250 µM (≈ 89.6 µg/mL) and an MIC [1, 5] of 250 µM (≈ 89.6 µg/mL). The MIC ([2]; 168 h) was > 32 µM, the MIC ([2]; 336 h) was > 32 µM and the MIC ([2]; 504 h) was > 32 µM. For the same compound, the MIC ([3]; 336 h) was > 32 µM and the MIC ([3]; 504 h) was > 32 µM.

From patent US20210403443A1, “SUBSTITUTED 1,2,4-OXADIAZOLE, ITS APPLICATION AND A PHARMACEUTICAL PREPARATION COMPRISING IT” (SVENOX PHARMACEUTICALS LLC, priority 2018, published 2021)
